Test results taken from the NIST ThermoML archive (doi:10.1016/j.fluid.2014.05.021).
± gives the expanded uncertainty stated by the source.

Details: 101.33 kPa, Liquid, Vibrating tube method

Structure (SMILES)	mass density (278.15 K)	mass density (283.15 K)	mass density (288.15 K)	mass density (293.15 K)	mass density (298.15 K)	mass density (303.15 K)	mass density (308.15 K)	mass density (313.15 K)	mass density (318.15 K)	mass density (323.15 K)	mass density (328.15 K)	mass density (333.15 K)	mass density (338.15 K)	mass density (343.15 K)	mass density (348.15 K)	mass density (353.15 K)
CCC[N+](C)(C)CC.O=S(=O)([N-]S(=O)(=O)C(F)(F)F)C(F)(F)F	1420.02 ± 0.63 kg/m3	1415.26 ± 0.62 kg/m3	1410.6 ± 0.62 kg/m3	1405.96 ± 0.61 kg/m3	1401.26 ± 0.61 kg/m3	1396.46 ± 0.6 kg/m3	1391.81 ± 0.6 kg/m3	1387.91 ± 0.59 kg/m3	1383.36 ± 0.59 kg/m3	1379.82 ± 0.58 kg/m3	1375.4 ± 0.6 kg/m3	1370.97 ± 0.58 kg/m3	1366.49 ± 0.58 kg/m3	1361.67 ± 0.57 kg/m3	1357.66 ± 0.56 kg/m3	1353.3 ± 0.56 kg/m3
CCN(CC)c1c(N(CC)CC)[c+]1N(CC)CC.N#C[N-]C#N [1,2,3-tris(diethylamino)-cyclopropenylium dicyanoamide]	1016.38 ± 1.9 kg/m3	1013.27 ± 1.9 kg/m3	1010.14 ± 1.9 kg/m3	1007 ± 1.9 kg/m3	1003.91 ± 1.9 kg/m3	1000.79 ± 1.9 kg/m3	997.7 ± 1.9 kg/m3	994.62 ± 1.9 kg/m3	991.55 ± 1.9 kg/m3	988.5 ± 1.9 kg/m3	985.46 ± 1.8 kg/m3	982.43 ± 1.8 kg/m3	979.41 ± 1.8 kg/m3	976.41 ± 1.8 kg/m3	973.4 ± 1.8 kg/m3	970.42 ± 1.8 kg/m3
